Assay results as given in ChEMBL document CHEMBL3758129, “Design, synthesis and anti-HIV evaluation of novel diarylpyridine derivatives targeting the entrance channel of NNRTI binding pocket” (Eur J Med Chem, 2016).

How the values were obtained:
[1] = test system: Human immunodeficiency virus 1; assay: Antiviral activity against wild type HIV1 3B infected in human MT4 cells assessed as reduction of virus-induced cytopathic effect after 5 days by MTT assay; type: functional, organism-based; conditions: Human immunodeficiency virus 1, 3B, MT4, 120 h
[2] = test system: Human immunodeficiency virus 2; assay: Antiviral activity against wild type HIV2 ROD infected in human MT4 cells assessed as reduction of virus-induced cytopathic effect after 5 days by MTT assay; type: functional, organism-based; conditions: Human immunodeficiency virus 2, ISOLATE ROD, MT4, 120 h
[3] = Selectivity index, ratio of CC50 for human MT4 cells to EC50 for wild type HIV1 3B infected in human MT4 cells; type: toxicity, cell-based; conditions: read-out: Ratio CC50/EC50
[4] = Cytotoxicity against human MT4 cells assessed as reduction in viability of mock infected cells after 5 days MTT assay; type: cell-based
[5] = Selectivity index, ratio of CC50 for human MT4 cells to EC50 for wild type HIV2 ROD infected in human MT4 cells; type: toxicity, cell-based; conditions: read-out: Ratio CC50/EC50
[6] = test system: Human immunodeficiency virus 1; assay: Antiviral activity against HIV1 […] expressing reverse transcriptase F227L/V106A double mutant infected in human MT4 cells assessed as reduction of virus-induced cytopathic effect after 5 days by MTT assay; type: functional, organism-based; conditions: Human immunodeficiency virus 1, MT4, 120 h
[7] = test system: Human immunodeficiency virus 1; assay: Antiviral activity against HIV1 3B expressing reverse transcriptase Y188L mutant infected in human MT4 cells assessed as reduction of virus-induced cytopathic effect after 5 days by MTT assay; type: functional, organism-based; conditions: Human immunodeficiency virus 1, 3B, MT4, 120 h
[8] = test system: Human immunodeficiency virus 1; assay: Antiviral activity against HIV1 3B expressing reverse transcriptase Y181C mutant infected in human MT4 cells assessed as reduction of virus-induced cytopathic effect after 5 days by MTT assay; type: functional, organism-based; conditions: Human immunodeficiency virus 1, 3B, MT4, 120 h
[9] = test system: Human immunodeficiency virus 1; assay: Antiviral activity against HIV1 3B expressing reverse transcriptase E138K mutant infected in human MT4 cells assessed as reduction of virus-induced cytopathic effect after 5 days by MTT assay; type: functional, organism-based; conditions: Human immunodeficiency virus 1, 3B, MT4, 120 h
[10] = test system: Human immunodeficiency virus 1; assay: Antiviral activity against HIV1 3B expressing reverse transcriptase K103N mutant infected in human MT4 cells assessed as reduction of virus-induced cytopathic effect after 5 days by MTT assay; type: functional, organism-based; conditions: Human immunodeficiency virus 1, 3B, MT4, 120 h
[11] = test system: Human immunodeficiency virus 1; assay: Antiviral activity against HIV1 3B expressing reverse transcriptase L100I mutant infected in human MT4 cells assessed as reduction of virus-induced cytopathic effect after 5 days by MTT assay; type: functional, organism-based; conditions: Human immunodeficiency virus 1, 3B, MT4, 120 h
[12] = test system: Human immunodeficiency virus 1; assay: Antiviral activity against HIV1 RES056 infected in human MT4 cells assessed as reduction of virus-induced cytopathic effect after 5 days by MTT assay; type: functional, organism-based; conditions: Human immunodeficiency virus 1, RES056, MT4, 120 h
[13] = test system: Human immunodeficiency virus 1; assay: Potency index, ratio of efavirenz EC50 to compound EC50 for antiviral activity against HIV1 3B expressing reverse transcriptase K103N mutant infected in human MT4 cells; type: functional
[14] = test system: Human immunodeficiency virus 1; assay: Potency index, ratio of delavirdine EC50 to compound EC50 for antiviral activity against HIV1 3B expressing reverse transcriptase K103N mutant infected in human MT4 cells; type: functional
[15] = test system: Human immunodeficiency virus 1; assay: Potency index, ratio of nevirapine EC50 to compound EC50 for antiviral activity against HIV1 3B expressing reverse transcriptase K103N mutant infected in human MT4 cells; type: functional

Row | Structure (SMILES) | EC50 [1] [nM] | EC50 [2] [nM] | selectivity ratio [3] | CC50 at 120 h [4] [nM] | selectivity ratio [5] | EC50 [6] [nM] | EC50 [7] [nM] | EC50 [8] [nM] | EC50 [9] [nM] | EC50 [10] [nM] | EC50 [11] [nM] | EC50 [12] [nM] | Ratio EC50 [13] | Ratio EC50 [14] | Ratio EC50 [15]
1 | Cc1cc(C#N)cc(C)c1Oc1cc(NCC2CC2)nc(Nc2ccc(C#N)cc2)c1 | 1520 | > 125000 | > 201 | > 305000 | < 1 | – | – | – | – | – | – | – | – | – | –
2 | Cc1cc(C)c(Oc2cc(NCCN3CCOCC3)nc(Nc3ccc(C#N)cc3)c2)c(C)c1 | 72 | > 11100 | 339 | 24300 | < 1 | 4520 | 9450 | 4930 | 4590 | 140 | 5800 | 8310 | – | – | –
3 | Cc1cc(C#N)cc(C)c1Oc1cc(NCCC#N)nc(Nc2ccc(C#N)cc2)c1 | 100 | > 3210 | 75 | 7850 | < 1 | > 7850 | > 7850 | > 7850 | 940 | 180 | 1340 | 11100 | – | – | –
4 | Cc1cc(C#N)cc(C)c1Oc1cc(Nc2ccc(C#N)cc2)nc(NC2CC2)c1 | 220 | > 4060 | 47 | 10300 | < 1 | – | – | – | – | – | – | – | – | – | –
5 | Cc1cc(C)c(Oc2cc(NCCN3CCNCC3)nc(Nc3ccc(C#N)cc3)c2)c(C)c1 | 710 | > 1650 | 5 | 3610 | < 1 | – | – | – | – | – | – | – | – | – | –
6 | Cc1cc(C#N)cc(C)c1Oc1cc(NCCN2CCOCC2)nc(Nc2ccc(C#N)cc2)c1 | 82 | > 17400 | 451 | 37200 | < 1 | 6040 | 8100 | 7550 | 6410 | 49 | 8460 | 4720 | 3 | 50 | 140
7 | COCCNc1cc(Oc2c(C)cc(C#N)cc2C)cc(Nc2ccc(C#N)cc2)n1 | 250 | > 40700 | ≥ 394 | ≥ 98500 | < 1 | – | – | – | – | – | – | – | – | – | –
8 | COC(CNc1cc(Oc2c(C)cc(C)cc2C)cc(Nc2ccc(C#N)cc2)n1)OC | 1630 | > 14500 | 21 | 33500 | < 1 | – | – | – | – | – | – | – | – | – | –
9 | Cc1cc(C)c(Oc2cc(NCCN(C)C)nc(Nc3ccc(C#N)cc3)c2)c(C)c1 | 43 | > 1940 | 109 | 4670 | < 1 | – | – | – | – | – | – | – | – | – | –
10 | COC(CNc1cc(Oc2c(C)cc(C#N)cc2C)cc(Nc2ccc(C#N)cc2)n1)OC | 840 | > 125000 | > 335 | > 282000 | < 1 | – | – | – | – | – | – | – | – | – | –
11 | Cc1cc(C)c(Oc2cc(NCCC#N)nc(Nc3ccc(C#N)cc3)c2)c(C)c1 | 240 | > 2100 | 22 | 5300 | < 1 | – | – | – | – | – | – | – | – | – | –
12 | Cc1cc(C)c(Oc2cc(NCC3CC3)nc(Nc3ccc(C#N)cc3)c2)c(C)c1 | 1990 | > 13100 | 17 | 32900 | < 1 | – | – | – | – | – | – | – | – | – | –
13 | Cc1cc(C)c(Oc2cc(Nc3ccc(C#N)cc3)nc(NC3CC3)c2)c(C)c1 | 35 | > 2580 | 190 | 6710 | < 1 | – | – | – | – | – | – | – | – | – | –
14 | Cc1cc(C#N)cc(C)c1Oc1cc(NCCN2CCNCC2)nc(Nc2ccc(C#N)cc2)c1 | 430 | > 2070 | 10 | 4430 | < 1 | – | – | – | – | – | – | – | – | – | –
15 | Cc1cc(C)c(Oc2cc(NCC3CCCO3)nc(Nc3ccc(C#N)cc3)c2)c(C)c1 (stereo not drawn) | 1790 | > 125000 | > 163 | > 292000 | < 1 | – | – | – | – | – | – | – | – | – | –
16 | Cc1cc(C#N)cc(C)c1Oc1cc(Cl)nc(Nc2ccc(C#N)cc2)c1 | 840 | > 8550 | 27 | 22900 | < 1 | – | – | – | – | – | – | – | – | – | –
17 | COCCNc1cc(Oc2c(C)cc(C)cc2C)cc(Nc2ccc(C#N)cc2)n1 | 870 | > 22900 | 65 | 56600 | < 1 | – | – | – | – | – | – | – | – | – | –
18 | Cc1cc(C#N)cc(C)c1Oc1cc(NCC2CCCO2)nc(Nc2ccc(C#N)cc2)c1 (stereo not drawn) | 1320 | > 125000 | > 216 | > 285000 | < 1 | – | – | – | – | – | – | – | – | – | –
19 | C=CCNc1cc(Oc2c(C)cc(C#N)cc2C)cc(Nc2ccc(C#N)cc2)n1 | 400 | > 8770 | 55 | 22200 | < 1 | – | – | – | – | – | – | – | – | – | –
20 | Cc1cc(C)c(Oc2cc(Cl)nc(Nc3ccc(C#N)cc3)c2)c(C)c1 | 370 | > 2030 | 15 | 5590 | < 1 | – | – | – | – | – | – | – | – | – | –
21 | C=CCNc1cc(Oc2c(C)cc(C)cc2C)cc(Nc2ccc(C#N)cc2)n1 | 700 | > 9330 | 35 | 24300 | < 1 | – | – | – | – | – | – | – | – | – | –
22 | CC(C)Nc1cccnc1N1CCN(C(=O)c2cc3cc(NS(C)(=O)=O)ccc3[nH]2)CC1 [DELAVIRDINE] | 33 | – | 30.4 | – | 733 | 1870 | 690 | 2030 | 43 | 2480 | 2100 | – | – | – | –
23 | O=C1Nc2ccc(Cl)cc2[C@@](C#CC2CC2)(C(F)(F)F)O1 [EFAVIRENZ] | – | – | – | – | – | 210 | 340 | 6.8 | – | – | 100 | – | – | – | –
24 | Cc1cc(C#N)cc(C)c1Oc1nc(Nc2ccc(C#N)cc2)nc(N)c1Br [ETRAVIRINE] | 3.5 | – | – | – | – | – | 22 | – | – | 3.2 | 6.6 | – | – | – | –
25 | Cc1ccnc2c1NC(=O)c1cccnc1N2C1CC1 [NEVIRAPINE] | 260 | – | – | – | – | – | 9610 | – | – | – | 830 | – | – | – | –
26 | Cc1cn([C@H]2C[C@H](N=[N+]=[N-])[C@@H](CO)O2)c(=O)[nH]c1=O [ZIDOVUDINE] | 6.7 | – | > 7.06 | – | > 1050 | 4.8 | 11 | 7.1 | 13 | 8.3 | 5.2 | – | – | – | –
